{"source": "patent US20120003655A1", "about": "“IDENTIFICATION OF NEUROPROTECTIVE AGENTS USING PRO-INFLAMMATORY HUMAN GLIAL CELLS” (The Salk Institute for Biological Studies, priority 2008, published 2012)", "key": {"primary human astrocytes": {"system": "primary human astrocytes", "test": "qPCR of IL1b-induced genes in primary human astrocytes", "type": "cell-based", "conditions": "1 μM for 1 hour, then 10 ng/ml IL1b 6 hours; qPCR normalized against HPRT", "experimental": "(§1) FIGS. 31A-F show indazol-estrogen suppression of the inflammation in human primary microglia and astrocytes. Primary human microglia (FIGS. 31A-C) and primary human atrocities (FIGS. 31D-E) were treated with Indazol-Estrogen-Bromide (Br), Indazol-Estrogen-Chloride (Cl), 17β-Estradiol (E2) or vehicle (ethanol:EtOH) for 1 hour followed by […] LPS stimulation for 6 hours (black column: 6 hr) or no LPS treatment (white column: Ohr). Normalized mRNA expression against HPRT of IL1β (FIG. 31A), IL23p19 (FIG. 31B), TGFβ (FIG. 31C) in microglia cells and BAFF (FIG. 31D), IL23p19 (FIG. 31E), iNOS (FIG. 31F) in astrocytes were determined using quantitative PCR. Primary human microglia and astrocytes were treated with 1 μM Indazol-Estrogen-Bromide (Br), 1 μM Indazol-Estrogen-Chloride (C1), 1 μM17β-Estradiol (E2) or vehicle (ethanol:EtOH) for 1 hour as a final concentration. Then microglia cells were stimulated with 0.1 μg/ml LPS and astrocytes were stimulated with 10 ng/ml IL1b for 6 hours. mRNA were purified and cDNA were generated by reverse transcriptase reaction. To determine the effect of ERβ-specific ligands in microglia and astrocytes-mediated inflammation, the activation of several genes induced by LPS in microglia or by IL1b in astrocytes were determined by QPCR normalized against HPRT."}, "primary human microglia": {"system": "primary human microglia", "test": "qPCR of LPS-induced genes in primary human microglia", "type": "cell-based", "conditions": "1 μM for 1 hour, then 0.1 μg/ml LPS 6 hours; qPCR normalized against HPRT", "experimental": "as §1"}, "[1]": {"system": "SOD^G37R mutated astrocyte cultures", "test": "Detection of ROS production in SOD1 G37R astrocytes after anti-oxidant treatment", "type": "cell-based, human", "conditions": "48 hours treatment, vs vehicle (EtOH or DMSO); apocynin 300 μM, alpha lipoic acid 50 μg/mL, epicatechin 10 μM, luteolin 5 μM, resveratrol 5 μM", "experimental": "Primary astrocyte culture. Human primary astrocytes (HA1800) were obtained from ScienCell Research Laboratories™ (Carlsbad, Calif.) and were cultured according to the providers' guidelines. Briefly, the astrocytes were isolated from fetal human brain (cerebral cortex) and cultured for no more than 15 passages in astrocyte media (AM 1801). The infections were performed in 80% confluent T75 flasks followed by incubation with the lentivirus expressing either the wild type of SOD1 (LV-SOD1^wT) or the mutated form of SOD1 (LV-SOD1^G37R).\nDetection of ROS production. Detection of total cellular ROS was performed using the Image-iT LIVE Green reactive Oxygen Species Detection Kit, according to the manufacturer's directions (Molecular Probes, Invitrogen). Briefly, this assay is based on the principle that the live cell permeable compound, carboxy-H2DCFDA, emits a bright green fluorescence when it is oxidized in the presence of ROS. The quantification of the ROS production was addressed in 2 ways: 1) counting the number of fluorescent cells and 2) measuring the intensity of the fluorescence emitted by the cells. The relative fluorescence intensity (arbitrary units ranging from 0 to 255, or black to white) was measured in randomly selected fields for each treatment and was analyzed and quantified using ImageProPlus software.\nAnti-oxidants treatment. Anti-oxidants stock solutions were diluted in astrocyte media and directly applied to astrocyte monolayers. The cultures were treated for 48 hours prior to reactive species of oxygen (ROS) detection. The compounds used in the experiment were epicatechin (E4018 Sigma Aldrich, 10 μM), luteolin (L9283 Sigma-Aldrich, 5 μM), resveratrol (R5010Sigma-Aldrich, 5 μM), apocynin (178385 Calbiochem, 300 μM), alpha lipoic acid (T5625, Sigma-Aldrich, 50 μg/mL). For neuronal co-cultures, the astrocytes were pre-treated for 48 hours with apocynin and the rosettes were plated on top of them. The co-cultures were carried for 3 more weeks and the medium containing apocynin was replaced three more times during the co-culture period.\nA total of five compounds and their respective vehicles (ethanol (EtOH) or DMSO) were tested in SOD^G37R mutated astrocyte cultures to address their anti-oxidant potential (FIG. 4A)."}}}
{"smiles": "C[C@]12CC[C@@H]3c4ccc(O)cc4CC[C@H]3[C@@H]1CC[C@@H]2O", "note": "[Estradiol, 17β-Estradiol]", "values": [{"measurement": "BAFF mRNA", "setting": "primary human astrocytes", "value": "not"}, {"measurement": "IL23 (IL23p19) mRNA", "setting": "primary human astrocytes", "value": "not"}, {"measurement": "iNOS mRNA", "setting": "primary human astrocytes", "value": "not"}]}
{"smiles": "Oc1ccc(-n2nc3ccc(O)cc3c2Br)cc1", "note": "[Indazol-Br]", "values": [{"measurement": "TGFβ mRNA", "setting": "primary human microglia", "value": "do not repress"}, {"measurement": "induction of IL1β mRNA", "setting": "primary human microglia", "value": "repress"}, {"measurement": "induction of IL23 (IL23p19) mRNA", "setting": "primary human microglia", "value": "repress"}, {"measurement": "BAFF mRNA", "setting": "primary human astrocytes", "value": "repress"}, {"measurement": "IL23 (IL23p19) mRNA", "setting": "primary human astrocytes", "value": "repress"}, {"measurement": "iNOS mRNA", "setting": "primary human astrocytes", "value": "repress"}]}
{"smiles": "Oc1ccc(-n2nc3ccc(O)cc3c2Cl)cc1", "note": "[Indazol-Cl]", "values": [{"measurement": "TGFβ mRNA", "setting": "primary human microglia", "value": "do not repress"}, {"measurement": "induction of IL1β mRNA", "setting": "primary human microglia", "value": "repress"}, {"measurement": "induction of IL23 (IL23p19) mRNA", "setting": "primary human microglia", "value": "repress"}, {"measurement": "BAFF mRNA", "setting": "primary human astrocytes", "value": "repress"}, {"measurement": "IL23 (IL23p19) mRNA", "setting": "primary human astrocytes", "value": "repress"}, {"measurement": "iNOS mRNA", "setting": "primary human astrocytes", "value": "repress"}]}
{"smiles": "O=C(O)CCCCC1CCSS1", "note": "(stereo not drawn) [alpha-lipoic acid, alpha lipoic acid]", "values": [{"measurement": "percentage of cells that were able to produce ROS (percentage of oxidation)", "setting": "[1]", "value": "decreased the percentage of cells that were able to produce ROS"}]}
{"smiles": "O=c1cc(-c2ccc(O)c(O)c2)oc2cc(O)cc(O)c12", "note": "[luteolin]", "values": [{"measurement": "percentage of cells that were able to produce ROS (percentage of oxidation)", "setting": "[1]", "value": "did not seem to have a detectable effect"}]}
{"smiles": "Oc1ccc(C=Cc2cc(O)cc(O)c2)cc1", "note": "[resveratrol]", "values": [{"measurement": "percentage of cells that were able to produce ROS (percentage of oxidation)", "setting": "[1]", "value": "did not seem to have a detectable effect"}]}
